The results in this text go back to paper PMC4685510, “A Cell Biologist’s Field Guide to Aurora Kinase Inhibitors” (Frontiers in Oncology, 2015).

What all share (assay): biochemical
Holding throughout (assay type): biochemical

The target in test [1] is 363 human kinases (including Aurora A/B/C) (Homo sapiens, UniProt O96017). Conditions: CHK2, [ATP] 20 µM.
Description: (§1) However, the Aurora A/B selectivity ratios derived from our in vitro and in vivo data can be compared to prioritize inhibitors.
Test [2] concerns the target 363 human kinases (including Aurora A/B/C) (Homo sapiens, UniProt Q9H2X6). The following applies: HIPK2; for remaining activity at 0.1 µM: 100 nM; for remaining activity at 0.1 µM / remaining activity at 0.5 µM: read-out: % Enzyme Activity (relative to DMSO controls).
Description: as §1
Test [3] addresses T1, 363 human kinases (including Aurora A/B/C) (Homo sapiens, UniProt P51956).
T1 sequence (P51956 1-506): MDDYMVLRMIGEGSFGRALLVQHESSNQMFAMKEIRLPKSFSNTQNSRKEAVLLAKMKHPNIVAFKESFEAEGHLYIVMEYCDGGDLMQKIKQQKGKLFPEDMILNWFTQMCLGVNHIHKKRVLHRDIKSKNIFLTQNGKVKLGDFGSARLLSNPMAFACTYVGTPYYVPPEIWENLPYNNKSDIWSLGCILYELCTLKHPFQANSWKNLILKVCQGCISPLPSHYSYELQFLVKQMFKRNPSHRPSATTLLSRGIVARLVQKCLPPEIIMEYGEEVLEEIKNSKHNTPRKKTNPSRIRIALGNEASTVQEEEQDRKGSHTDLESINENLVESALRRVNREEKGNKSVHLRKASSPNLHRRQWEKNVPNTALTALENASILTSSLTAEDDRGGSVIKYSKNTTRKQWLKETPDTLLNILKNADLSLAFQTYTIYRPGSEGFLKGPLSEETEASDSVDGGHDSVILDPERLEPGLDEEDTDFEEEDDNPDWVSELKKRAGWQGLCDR
Conditions: NEK3; for remaining activity at 0.1 µM: 100 nM; for remaining activity at 0.1 µM / remaining activity at 0.5 µM: read-out: % Enzyme Activity (relative to DMSO controls).
Description: as §1

For test [4], the target named is T2, 363 human kinases (including Aurora A/B/C) (Homo sapiens, UniProt P29320).
T2 sequence (P29320 21-983): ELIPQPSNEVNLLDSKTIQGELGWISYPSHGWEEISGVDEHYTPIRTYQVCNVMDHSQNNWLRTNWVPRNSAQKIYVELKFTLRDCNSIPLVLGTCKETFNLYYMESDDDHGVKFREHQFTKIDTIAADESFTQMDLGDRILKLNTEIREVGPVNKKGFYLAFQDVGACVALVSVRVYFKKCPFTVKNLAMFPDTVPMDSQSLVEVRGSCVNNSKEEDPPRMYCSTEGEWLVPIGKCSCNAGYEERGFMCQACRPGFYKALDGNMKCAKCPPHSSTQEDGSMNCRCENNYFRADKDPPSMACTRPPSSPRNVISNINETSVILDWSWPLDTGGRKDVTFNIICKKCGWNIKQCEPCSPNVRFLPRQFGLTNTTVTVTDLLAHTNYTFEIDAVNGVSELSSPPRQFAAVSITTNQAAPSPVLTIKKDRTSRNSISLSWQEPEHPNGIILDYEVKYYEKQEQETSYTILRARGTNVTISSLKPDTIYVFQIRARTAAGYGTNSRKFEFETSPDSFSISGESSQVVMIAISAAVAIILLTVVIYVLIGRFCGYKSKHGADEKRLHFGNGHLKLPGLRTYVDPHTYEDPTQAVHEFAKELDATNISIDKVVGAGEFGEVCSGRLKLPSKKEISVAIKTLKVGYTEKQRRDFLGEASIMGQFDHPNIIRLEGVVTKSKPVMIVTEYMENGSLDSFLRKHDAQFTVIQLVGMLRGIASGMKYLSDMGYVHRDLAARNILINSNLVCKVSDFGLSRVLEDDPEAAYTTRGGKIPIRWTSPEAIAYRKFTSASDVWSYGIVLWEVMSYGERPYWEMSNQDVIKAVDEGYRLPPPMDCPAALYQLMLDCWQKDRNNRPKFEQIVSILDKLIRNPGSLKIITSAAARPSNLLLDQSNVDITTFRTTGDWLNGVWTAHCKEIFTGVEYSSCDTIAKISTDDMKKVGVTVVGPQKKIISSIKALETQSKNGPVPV
The following applies: EPHA3, [ATP] 50 µM; for remaining activity at 0.1 µM: 100 nM; for remaining activity at 0.1 µM / remaining activity at 0.5 µM: read-out: % Enzyme Activity (relative to DMSO controls).
Description: as §1

Test [5] addresses 363 human kinases (including Aurora A/B/C) (Homo sapiens, UniProt P29376). The following applies: TYK1/LTK; for remaining activity at 0.1 µM: 100 nM; for remaining activity at 0.1 µM / remaining activity at 0.5 µM: read-out: % Enzyme Activity (relative to DMSO controls).
Description: as §1
Test [6] has as its target 363 human kinases (including Aurora A/B/C) (Homo sapiens, UniProt O43293). The following applies: ZIPK/DAPK3; for remaining activity at 0.1 µM: 100 nM; for remaining activity at 0.1 µM / remaining activity at 0.5 µM: read-out: % Enzyme Activity (relative to DMSO controls).
Description: as §1
Test [7] addresses T3, 363 human kinases (including Aurora A/B/C) (Homo sapiens, UniProt P54760).
T3 sequence (P54760 16-987): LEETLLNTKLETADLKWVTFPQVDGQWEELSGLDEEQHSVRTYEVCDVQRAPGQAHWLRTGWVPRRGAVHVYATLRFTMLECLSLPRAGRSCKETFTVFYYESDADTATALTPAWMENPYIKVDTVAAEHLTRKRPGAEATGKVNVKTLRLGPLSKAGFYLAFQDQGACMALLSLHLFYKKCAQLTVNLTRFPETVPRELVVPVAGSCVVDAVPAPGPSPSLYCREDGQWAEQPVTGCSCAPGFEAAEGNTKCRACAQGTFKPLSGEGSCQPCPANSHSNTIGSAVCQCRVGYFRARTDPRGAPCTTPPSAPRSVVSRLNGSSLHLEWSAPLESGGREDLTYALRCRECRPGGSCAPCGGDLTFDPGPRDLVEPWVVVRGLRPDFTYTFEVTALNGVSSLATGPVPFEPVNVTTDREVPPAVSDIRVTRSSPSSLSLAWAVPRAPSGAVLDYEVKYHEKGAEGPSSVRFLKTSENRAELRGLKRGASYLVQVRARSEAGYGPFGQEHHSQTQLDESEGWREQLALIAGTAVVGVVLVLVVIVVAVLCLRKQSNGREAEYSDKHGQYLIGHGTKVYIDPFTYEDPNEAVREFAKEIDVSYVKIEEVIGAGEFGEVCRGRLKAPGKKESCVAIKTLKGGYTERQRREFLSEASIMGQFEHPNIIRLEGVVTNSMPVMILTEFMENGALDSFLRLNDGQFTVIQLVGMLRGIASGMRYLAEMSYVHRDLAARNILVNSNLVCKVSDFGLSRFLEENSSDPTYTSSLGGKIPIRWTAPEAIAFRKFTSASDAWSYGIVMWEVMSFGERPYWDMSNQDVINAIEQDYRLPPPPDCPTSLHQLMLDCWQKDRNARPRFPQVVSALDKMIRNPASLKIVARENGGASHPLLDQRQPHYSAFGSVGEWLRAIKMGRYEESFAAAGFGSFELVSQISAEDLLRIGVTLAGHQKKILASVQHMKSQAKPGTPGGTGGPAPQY
The following applies: EPHB4, [ATP] 20 µM; for remaining activity at 0.1 µM: 100 nM; for remaining activity at 0.1 µM / remaining activity at 0.5 µM: read-out: % Enzyme Activity (relative to DMSO controls).
Description: as §1

Setting [8] is: 500 nM, read-out: % Enzyme Activity (relative to DMSO controls).

Sequence of 363 human kinases (including Aurora A/B/C) (Homo sapiens, UniProt Q9H2X6) (Q9H2X6 whole entry): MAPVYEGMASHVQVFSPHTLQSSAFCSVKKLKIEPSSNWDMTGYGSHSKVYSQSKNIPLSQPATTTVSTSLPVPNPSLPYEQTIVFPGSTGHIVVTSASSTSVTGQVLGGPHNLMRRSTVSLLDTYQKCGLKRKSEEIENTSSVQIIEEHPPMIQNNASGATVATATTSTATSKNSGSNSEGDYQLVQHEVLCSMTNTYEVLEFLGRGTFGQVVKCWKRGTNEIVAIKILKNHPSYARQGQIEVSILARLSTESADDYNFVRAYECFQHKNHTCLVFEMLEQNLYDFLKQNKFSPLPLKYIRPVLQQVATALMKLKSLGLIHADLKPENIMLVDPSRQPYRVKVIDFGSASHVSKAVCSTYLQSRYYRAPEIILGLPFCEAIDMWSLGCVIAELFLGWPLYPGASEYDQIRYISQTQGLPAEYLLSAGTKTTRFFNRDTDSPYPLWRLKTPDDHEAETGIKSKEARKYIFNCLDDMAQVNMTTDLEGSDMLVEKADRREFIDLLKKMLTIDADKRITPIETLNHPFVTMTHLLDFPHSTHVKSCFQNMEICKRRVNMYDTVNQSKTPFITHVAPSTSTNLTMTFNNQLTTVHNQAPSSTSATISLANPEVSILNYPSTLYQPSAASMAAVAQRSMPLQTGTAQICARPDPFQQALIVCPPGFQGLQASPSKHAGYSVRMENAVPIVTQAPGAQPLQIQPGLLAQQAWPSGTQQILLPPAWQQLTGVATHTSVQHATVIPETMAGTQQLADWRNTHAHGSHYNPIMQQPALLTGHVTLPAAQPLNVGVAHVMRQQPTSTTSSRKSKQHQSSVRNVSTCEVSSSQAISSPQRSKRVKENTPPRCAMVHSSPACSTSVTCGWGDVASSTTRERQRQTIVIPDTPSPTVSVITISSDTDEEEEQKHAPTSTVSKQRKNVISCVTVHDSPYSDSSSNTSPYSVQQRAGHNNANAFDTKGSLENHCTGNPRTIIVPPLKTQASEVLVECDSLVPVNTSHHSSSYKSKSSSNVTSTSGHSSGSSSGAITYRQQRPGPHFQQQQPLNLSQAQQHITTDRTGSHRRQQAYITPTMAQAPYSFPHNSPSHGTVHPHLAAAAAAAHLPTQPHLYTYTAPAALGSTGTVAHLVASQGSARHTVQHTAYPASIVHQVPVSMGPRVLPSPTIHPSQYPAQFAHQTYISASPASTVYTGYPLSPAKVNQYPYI
Sequence of 363 human kinases (including Aurora A/B/C) (Homo sapiens, UniProt P29376) (P29376 17-864): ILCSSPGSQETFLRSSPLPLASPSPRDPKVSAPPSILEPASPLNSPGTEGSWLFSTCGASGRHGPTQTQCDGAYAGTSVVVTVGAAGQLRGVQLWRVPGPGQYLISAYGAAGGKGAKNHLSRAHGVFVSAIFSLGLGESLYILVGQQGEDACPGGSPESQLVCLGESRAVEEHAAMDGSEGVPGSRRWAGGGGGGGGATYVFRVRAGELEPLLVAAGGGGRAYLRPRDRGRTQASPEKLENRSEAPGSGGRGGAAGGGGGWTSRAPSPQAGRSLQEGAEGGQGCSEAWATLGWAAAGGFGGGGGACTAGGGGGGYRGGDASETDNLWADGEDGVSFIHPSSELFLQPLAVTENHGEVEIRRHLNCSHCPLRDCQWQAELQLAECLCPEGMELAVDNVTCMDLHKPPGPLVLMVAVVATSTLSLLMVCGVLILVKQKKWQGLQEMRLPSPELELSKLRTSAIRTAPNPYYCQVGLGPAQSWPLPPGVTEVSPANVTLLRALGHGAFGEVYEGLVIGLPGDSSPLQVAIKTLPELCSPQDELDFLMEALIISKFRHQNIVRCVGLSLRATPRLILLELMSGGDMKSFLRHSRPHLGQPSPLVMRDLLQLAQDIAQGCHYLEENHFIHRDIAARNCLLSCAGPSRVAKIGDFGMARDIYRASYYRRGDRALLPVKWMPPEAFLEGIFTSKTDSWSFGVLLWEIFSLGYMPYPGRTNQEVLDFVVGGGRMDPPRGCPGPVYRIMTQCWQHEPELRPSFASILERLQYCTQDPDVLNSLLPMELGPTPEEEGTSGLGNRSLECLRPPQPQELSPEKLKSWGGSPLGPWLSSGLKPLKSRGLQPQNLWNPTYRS
Sequence of 363 human kinases (including Aurora A/B/C) (Homo sapiens, UniProt O96017) (O96017 whole entry): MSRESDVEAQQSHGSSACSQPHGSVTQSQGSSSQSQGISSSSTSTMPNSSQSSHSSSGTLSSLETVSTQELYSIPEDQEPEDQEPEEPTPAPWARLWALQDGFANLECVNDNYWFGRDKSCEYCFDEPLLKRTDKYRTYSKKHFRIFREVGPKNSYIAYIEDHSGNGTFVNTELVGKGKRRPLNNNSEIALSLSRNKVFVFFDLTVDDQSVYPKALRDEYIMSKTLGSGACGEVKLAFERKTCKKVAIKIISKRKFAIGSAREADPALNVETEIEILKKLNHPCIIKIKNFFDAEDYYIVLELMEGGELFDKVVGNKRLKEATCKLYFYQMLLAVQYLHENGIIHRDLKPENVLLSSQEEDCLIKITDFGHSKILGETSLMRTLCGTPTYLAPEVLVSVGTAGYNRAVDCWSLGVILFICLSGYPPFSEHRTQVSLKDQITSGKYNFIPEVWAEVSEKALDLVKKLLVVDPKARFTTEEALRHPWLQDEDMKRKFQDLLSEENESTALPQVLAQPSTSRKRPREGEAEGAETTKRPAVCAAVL
Sequence of 363 human kinases (including Aurora A/B/C) (Homo sapiens, UniProt O43293) (O43293 whole entry): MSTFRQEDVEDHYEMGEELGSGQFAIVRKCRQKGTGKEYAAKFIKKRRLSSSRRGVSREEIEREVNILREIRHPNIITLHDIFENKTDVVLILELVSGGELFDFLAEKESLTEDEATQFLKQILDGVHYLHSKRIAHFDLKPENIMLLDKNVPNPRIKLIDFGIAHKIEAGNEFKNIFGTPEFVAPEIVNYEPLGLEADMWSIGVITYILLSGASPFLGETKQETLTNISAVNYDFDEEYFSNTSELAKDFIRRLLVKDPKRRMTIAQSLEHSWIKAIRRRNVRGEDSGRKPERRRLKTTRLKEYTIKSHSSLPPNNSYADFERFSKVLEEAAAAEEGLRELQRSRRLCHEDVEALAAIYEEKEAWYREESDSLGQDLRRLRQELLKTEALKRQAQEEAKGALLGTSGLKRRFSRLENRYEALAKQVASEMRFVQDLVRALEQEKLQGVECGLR

`CCn1cc(-c2ccnc3[nH]c(-c4cccc(CN(C)C)c4)cc23)c(-c2ccc(NC(=O)N(C)C)cc2)n1` [GSK1070916]: the remaining activity at 0.1 µM in test [1] (100 nM, read-out: % Enzyme Activity (relative to DMSO controls)) amounted to 99.2%; in test [2], 104%; in test [3], 97.7%; in test [4] it was 93.1%; in test [5] it was 106%; in test [6] it was 91.4%. Also, in test [7], the remaining activity at 0.1 µM came to 87.9%.

Consider `O=C(O)[C@]1(Cc2cccc(Nc3nccs3)n2)CC[C@@H](Oc2cccc(Cl)c2F)CC1` [MK-5108], for which the remaining activity at 0.5 µM was 56.2% in test [1] (setting [8]); 50% in test [2] (500 nM); 101% in test [3] (500 nM); 31.4% in test [4] (500 nM); 64.2% in test [5] (500 nM); 92.6% in test [6] (500 nM). The remaining activity at 0.5 µM in test [7] (500 nM) was 5.58%. Moreover, the remaining activity at 0.1 µM in test [2] turned out to be 89.2%; in test [3] it was 99.3%; in test [4], 67.4%; in test [5], 87.6%; in test [6], 97.8%; in test [7] it was 29.5%.

Turning to `O=C(c1cccc(Cl)c1F)N1CCN(Cc2cccc(Nc3nccs3)n2)CC1` [MK-8745], the “% Enzyme Activity (relative to DMSO controls)” value in test [1] (500 nM) turned out to be 91.78%; in test [2] (500 nM), 102.33%; in test [3] (500 nM) it was 99.14%; in test [4] (500 nM), 84.89%; in test [5] (500 nM), 94.24%; in test [6] (500 nM), 93.58%. The “% Enzyme Activity (relative to DMSO controls)” value in test [7] (500 nM) was 47.01%. Besides, the remaining activity at 0.5 µM in test [1] (setting [8]) came to 93.2%; in test [2] (500 nM) it was 106%; in test [3] (500 nM) it was 100%; in test [4] (500 nM), 85.5%; in test [5] (500 nM) it was 96.4%; in test [6] (500 nM), 95.5%. The remaining activity at 0.5 µM in test [7] (500 nM) came out at 47.7%.
